Laboratory results from ChEMBL document CHEMBL1201862, “PubChem BioAssay data set” (2004).
Calls of active or inactive are those of the source.

Legend:
[1] = molecular target: Mitochondrial peptide methionine sulfoxide reductase (Bos taurus, UniProt P54149); assay: Absorbance-based biochemical high throughput dose response assay for activators of Methionine sulfoxide reductase A (MsrA).; assay type: functional
[2] = ARNT/TACC3 interaction disruptors, potency, confirmation, biochemical, AlphaScreen, cherry-picked samples (AID 651703); assay type: functional, Homo sapiens;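 also: His-tagged ARNT PAS-B domain paired with GST-TACC3 E629A dimer coactivator fragment; potency of inhibitors that break up the complex and lower AlphaScreen signal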
[3] = molecular target: Testis-specific serine/threonine-protein kinase 1 (Homo sapiens, UniProt Q9BXA7); assay type: functional
[4] = molecular target: Dual specificity protein kinase CLK4 (Homo sapiens, UniProt Q9HAZ1); assay type: functional
[5] = molecular target: Activin receptor type-1 (Homo sapiens, UniProt Q04771); assay: Navigating the Kinome. Panel member name: ACVR1; assay type: functional
[6] = molecular target: Inhibitor of nuclear factor kappa-B kinase subunit epsilon (Homo sapiens, UniProt Q14164); assay: Navigating the Kinome. Panel member name: IKBKE; assay type: functional
[7] = molecular target: Homeodomain-interacting protein kinase 2 (Homo sapiens, UniProt Q9H2X6); assay type: functional;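 also: measured within a kinome-wide kinase profiling panel, HIPK2 being one panel member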
[8] = molecular target: Tyrosine-protein kinase FRK (Homo sapiens, UniProt P42685); assay type: functional;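 also: FRK tested as one member of a kinome panel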
[9] = molecular target: Tyrosine-protein kinase Blk (Homo sapiens, UniProt P51451); assay type: functional;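 also: obtained as one member of a kinome-wide kinase assay panel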
[10] = molecular target: Serine/threonine-protein kinase MRCK alpha (Homo sapiens, UniProt Q5VT25); assay type: functional
[11] = molecular target: Casein kinase I isoform gamma-1 (Homo sapiens, UniProt Q9HCP0); assay type: functional;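 also: measured as the CSNK1G1 member of a kinome profiling panel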
[12] = molecular target: MAP/microtubule affinity-regulating kinase 4 (Homo sapiens, UniProt Q96L34); assay: Navigating the Kinome. Panel member name: MARK4; assay type: functional
[13] = molecular target: Serine/threonine-protein kinase Chk1 (Homo sapiens, UniProt O14757); assay type: functional;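 also: measured as one member of a kinome-wide kinase profiling panel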
[14] = molecular target: Mitogen-activated protein kinase kinase kinase 20 (Homo sapiens, UniProt Q9NYL2); assay type: functional
[15] = molecular target: Protein kinase C delta type (Homo sapiens, UniProt Q05655); assay type: functional
[16] = molecular target: Aurora kinase B (Homo sapiens, UniProt Q96GD4); assay type: functional
[17] = molecular target: Mitogen-activated protein kinase 9 (Homo sapiens, UniProt P45984); assay type: functional;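 also: value from a kinome panel profiling assay, MAPK9 panel entry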
[18] = molecular target: Serine/threonine-protein kinase DCLK1 (Homo sapiens, UniProt O15075); assay type: functional;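 also: affinity for DCLK1 (listed as DCAMKL1) measured as one member of a kinome-wide kinase profiling panel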
[19] = molecular target: Receptor tyrosine-protein kinase erbB-4 (Homo sapiens, UniProt Q15303); assay type: functional;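 also: ERBB4 member of a kinome-wide kinase profiling panel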
[20] = molecular target: Serine/threonine-protein kinase TAO1 (Homo sapiens, UniProt Q7L7X3); assay type: functional
[21] = molecular target: cAMP-dependent protein kinase catalytic subunit alpha (Homo sapiens, UniProt P17612); assay type: functional
[22] = molecular target: Serine/threonine-protein kinase Chk2 (Homo sapiens, UniProt O96017); assay type: functional;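 also: CHEK2 entry within a kinome-wide screening panel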
[23] = molecular target: Receptor tyrosine-protein kinase erbB-2 (Homo sapiens, UniProt P04626); assay: Navigating the Kinome. Panel member name: ERBB2; assay type: functional
[24] = molecular target: Casein kinase I isoform alpha (Homo sapiens, UniProt P48729); assay type: functional
[25] = molecular target: Mitogen-activated protein kinase kinase kinase kinase 2 (Homo sapiens, UniProt Q12851); assay type: functional;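 also: measured as one member of a kinome-wide kinase panel, with MAP4K2 as the panel entry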
[26] = molecular target: Tyrosine-protein kinase Lyn (Homo sapiens, UniProt P07948); assay type: functional;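 also: lyn as one member of a kinase panel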
[27] = molecular target: Tyrosine-protein kinase HCK (Homo sapiens, UniProt P08631); assay: Navigating the Kinome. Panel member name: HCK; assay type: functional
[28] = molecular target: Serine/threonine-protein kinase pim-1 (Homo sapiens, UniProt P11309); assay type: functional
[29] = molecular target: Dual specificity protein kinase CLK2 (Homo sapiens, UniProt P49760); assay type: functional
[30] = molecular target: Serine/threonine-protein kinase PLK1 (Homo sapiens, UniProt P53350); assay type: functional;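 also: PLK1 measured as one member of a kinome-wide profiling panel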
[31] = molecular target: Fibroblast growth factor receptor 1 (Homo sapiens, UniProt P11362); assay type: functional
[32] = molecular target: Serine/threonine-protein kinase N2 (Homo sapiens, UniProt Q16513); assay type: functional
[33] = molecular target: Cell division cycle 7-related protein kinase (Homo sapiens, UniProt O00311); assay type: functional;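 also: value obtained from a kinome-wide kinase panel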
[34] = molecular target: Protein kinase C iota type (Homo sapiens, UniProt P41743); assay type: functional;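 also: measured within a kinome-wide kinase panel, PRKCI as panel member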
[35] = molecular target: Calcium/calmodulin-dependent protein kinase type 1 (Homo sapiens, UniProt Q14012); assay type: functional
[36] = molecular target: Fibroblast growth factor receptor 3 (Homo sapiens, UniProt P22607); assay type: functional
[37] = molecular target: Serine/threonine-protein kinase PLK4 (Homo sapiens, UniProt O00444); assay type: functional;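 also: PLK4 measured as one member of a kinome-wide kinase profiling panel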
[38] = molecular target: Mitogen-activated protein kinase 13 (Homo sapiens, UniProt O15264); assay type: functional
[39] = molecular target: RAC-gamma serine/threonine-protein kinase (Homo sapiens, UniProt Q9Y243); assay type: functional
[40] = molecular target: T1, Calpain-2 catalytic subunit (Sus scrofa, UniProt P43367); assay: pig calpain II inhibitor potency, dose response, biochemical, fluorogenic peptide substrate (AID 1420); assay type: functional
T1 sequence (P43367 whole entry): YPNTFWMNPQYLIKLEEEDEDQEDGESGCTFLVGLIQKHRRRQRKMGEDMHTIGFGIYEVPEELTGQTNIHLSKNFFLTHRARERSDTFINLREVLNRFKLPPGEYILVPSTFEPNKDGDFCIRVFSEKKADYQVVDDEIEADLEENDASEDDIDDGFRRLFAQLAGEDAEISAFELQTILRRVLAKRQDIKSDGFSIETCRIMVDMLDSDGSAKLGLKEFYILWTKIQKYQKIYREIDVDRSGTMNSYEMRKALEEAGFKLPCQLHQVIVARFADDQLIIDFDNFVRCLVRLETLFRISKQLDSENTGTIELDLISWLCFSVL

[41] = molecular target: Genome polyprotein (dengue virus type 2, UniProt P29990); assay: Dengue-2 NS5 methyltransferase inhibitors, primary screen, biochemical, confirmation dose response (AID 588689); assay type: functional
[42] = system: HEK293; assay: Fluorescence-based counterscreen for potentiators or agonists of NPY-Y1: cell-based high-throughput dose response assay for inhibitors of cyclic nucleotide gated ion channel (CNGC) activity. In this assay, the parental HEK293 cell line transfected with a cyclic-nucleotide gated ion channel (CNGC)-based cAMP sensor is used to measure inhibition of isoproterenol-induced CNGC …; assay type: functional; settings: Homo sapiens

Sequence of Receptor tyrosine-protein kinase erbB-2 (P04626 whole entry, canonical isoform): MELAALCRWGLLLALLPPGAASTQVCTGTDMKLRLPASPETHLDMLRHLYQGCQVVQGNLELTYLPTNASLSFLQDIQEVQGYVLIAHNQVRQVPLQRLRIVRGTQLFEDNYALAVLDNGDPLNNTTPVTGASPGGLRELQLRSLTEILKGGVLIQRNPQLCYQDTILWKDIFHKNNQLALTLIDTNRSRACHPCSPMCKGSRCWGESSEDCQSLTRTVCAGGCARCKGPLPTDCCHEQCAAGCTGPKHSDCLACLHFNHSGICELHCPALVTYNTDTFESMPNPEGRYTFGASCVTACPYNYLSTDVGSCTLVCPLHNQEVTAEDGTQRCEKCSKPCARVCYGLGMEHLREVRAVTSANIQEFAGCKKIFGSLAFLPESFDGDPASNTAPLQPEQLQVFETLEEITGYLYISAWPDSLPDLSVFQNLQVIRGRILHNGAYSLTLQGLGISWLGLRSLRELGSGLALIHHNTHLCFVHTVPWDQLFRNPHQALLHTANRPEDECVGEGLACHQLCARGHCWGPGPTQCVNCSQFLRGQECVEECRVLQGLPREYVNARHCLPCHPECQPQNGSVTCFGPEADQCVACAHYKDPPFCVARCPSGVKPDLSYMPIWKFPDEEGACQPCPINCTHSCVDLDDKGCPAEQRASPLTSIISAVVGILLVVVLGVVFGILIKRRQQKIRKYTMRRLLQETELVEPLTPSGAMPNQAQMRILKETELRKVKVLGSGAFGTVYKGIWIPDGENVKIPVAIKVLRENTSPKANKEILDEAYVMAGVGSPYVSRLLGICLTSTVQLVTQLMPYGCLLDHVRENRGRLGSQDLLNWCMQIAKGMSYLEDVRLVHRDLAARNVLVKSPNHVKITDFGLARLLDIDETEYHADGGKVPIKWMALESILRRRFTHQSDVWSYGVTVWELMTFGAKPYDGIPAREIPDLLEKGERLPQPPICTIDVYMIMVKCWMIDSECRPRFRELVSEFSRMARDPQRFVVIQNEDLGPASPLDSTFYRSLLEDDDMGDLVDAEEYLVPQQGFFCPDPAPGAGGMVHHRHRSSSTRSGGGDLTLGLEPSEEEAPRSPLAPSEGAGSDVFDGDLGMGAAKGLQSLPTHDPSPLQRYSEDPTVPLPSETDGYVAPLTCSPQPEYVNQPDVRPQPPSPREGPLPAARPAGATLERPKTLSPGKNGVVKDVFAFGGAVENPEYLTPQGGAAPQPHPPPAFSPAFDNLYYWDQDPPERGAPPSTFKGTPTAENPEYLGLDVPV
Sequence of Fibroblast growth factor receptor 1 (P11362 whole entry): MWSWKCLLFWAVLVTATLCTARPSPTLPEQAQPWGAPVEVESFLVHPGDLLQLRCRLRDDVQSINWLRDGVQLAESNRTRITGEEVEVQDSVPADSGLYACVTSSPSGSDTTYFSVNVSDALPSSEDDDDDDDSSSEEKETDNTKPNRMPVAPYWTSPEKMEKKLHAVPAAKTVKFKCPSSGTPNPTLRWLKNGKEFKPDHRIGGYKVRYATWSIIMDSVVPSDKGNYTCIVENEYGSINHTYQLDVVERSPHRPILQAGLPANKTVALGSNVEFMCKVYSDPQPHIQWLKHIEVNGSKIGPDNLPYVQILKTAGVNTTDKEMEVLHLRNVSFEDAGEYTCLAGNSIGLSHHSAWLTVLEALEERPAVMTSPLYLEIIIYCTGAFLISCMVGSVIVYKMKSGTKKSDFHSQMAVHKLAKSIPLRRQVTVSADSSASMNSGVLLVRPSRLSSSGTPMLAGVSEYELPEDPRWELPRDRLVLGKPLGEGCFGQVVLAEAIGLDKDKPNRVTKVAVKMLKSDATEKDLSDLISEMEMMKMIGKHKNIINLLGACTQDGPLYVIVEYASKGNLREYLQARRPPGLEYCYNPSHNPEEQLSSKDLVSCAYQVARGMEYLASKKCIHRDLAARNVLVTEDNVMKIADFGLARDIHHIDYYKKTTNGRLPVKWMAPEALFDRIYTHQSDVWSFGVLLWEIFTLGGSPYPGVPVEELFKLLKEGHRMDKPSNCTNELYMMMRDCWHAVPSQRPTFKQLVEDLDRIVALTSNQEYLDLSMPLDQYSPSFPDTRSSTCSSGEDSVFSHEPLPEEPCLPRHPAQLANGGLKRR
Sequence of Mitogen-activated protein kinase 9 (P45984 whole entry): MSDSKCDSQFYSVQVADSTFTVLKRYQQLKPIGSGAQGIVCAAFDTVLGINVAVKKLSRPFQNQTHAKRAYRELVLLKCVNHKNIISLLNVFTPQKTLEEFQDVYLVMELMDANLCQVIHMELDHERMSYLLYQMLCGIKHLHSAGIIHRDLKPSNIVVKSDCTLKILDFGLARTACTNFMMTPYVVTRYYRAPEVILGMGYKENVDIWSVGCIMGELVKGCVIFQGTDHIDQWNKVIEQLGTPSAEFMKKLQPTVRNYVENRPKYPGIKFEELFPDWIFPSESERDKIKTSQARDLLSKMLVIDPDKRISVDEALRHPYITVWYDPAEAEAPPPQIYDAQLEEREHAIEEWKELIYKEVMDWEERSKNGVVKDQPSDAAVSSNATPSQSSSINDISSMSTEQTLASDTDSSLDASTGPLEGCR
Sequence of Receptor tyrosine-protein kinase erbB-4 (Q15303 whole entry): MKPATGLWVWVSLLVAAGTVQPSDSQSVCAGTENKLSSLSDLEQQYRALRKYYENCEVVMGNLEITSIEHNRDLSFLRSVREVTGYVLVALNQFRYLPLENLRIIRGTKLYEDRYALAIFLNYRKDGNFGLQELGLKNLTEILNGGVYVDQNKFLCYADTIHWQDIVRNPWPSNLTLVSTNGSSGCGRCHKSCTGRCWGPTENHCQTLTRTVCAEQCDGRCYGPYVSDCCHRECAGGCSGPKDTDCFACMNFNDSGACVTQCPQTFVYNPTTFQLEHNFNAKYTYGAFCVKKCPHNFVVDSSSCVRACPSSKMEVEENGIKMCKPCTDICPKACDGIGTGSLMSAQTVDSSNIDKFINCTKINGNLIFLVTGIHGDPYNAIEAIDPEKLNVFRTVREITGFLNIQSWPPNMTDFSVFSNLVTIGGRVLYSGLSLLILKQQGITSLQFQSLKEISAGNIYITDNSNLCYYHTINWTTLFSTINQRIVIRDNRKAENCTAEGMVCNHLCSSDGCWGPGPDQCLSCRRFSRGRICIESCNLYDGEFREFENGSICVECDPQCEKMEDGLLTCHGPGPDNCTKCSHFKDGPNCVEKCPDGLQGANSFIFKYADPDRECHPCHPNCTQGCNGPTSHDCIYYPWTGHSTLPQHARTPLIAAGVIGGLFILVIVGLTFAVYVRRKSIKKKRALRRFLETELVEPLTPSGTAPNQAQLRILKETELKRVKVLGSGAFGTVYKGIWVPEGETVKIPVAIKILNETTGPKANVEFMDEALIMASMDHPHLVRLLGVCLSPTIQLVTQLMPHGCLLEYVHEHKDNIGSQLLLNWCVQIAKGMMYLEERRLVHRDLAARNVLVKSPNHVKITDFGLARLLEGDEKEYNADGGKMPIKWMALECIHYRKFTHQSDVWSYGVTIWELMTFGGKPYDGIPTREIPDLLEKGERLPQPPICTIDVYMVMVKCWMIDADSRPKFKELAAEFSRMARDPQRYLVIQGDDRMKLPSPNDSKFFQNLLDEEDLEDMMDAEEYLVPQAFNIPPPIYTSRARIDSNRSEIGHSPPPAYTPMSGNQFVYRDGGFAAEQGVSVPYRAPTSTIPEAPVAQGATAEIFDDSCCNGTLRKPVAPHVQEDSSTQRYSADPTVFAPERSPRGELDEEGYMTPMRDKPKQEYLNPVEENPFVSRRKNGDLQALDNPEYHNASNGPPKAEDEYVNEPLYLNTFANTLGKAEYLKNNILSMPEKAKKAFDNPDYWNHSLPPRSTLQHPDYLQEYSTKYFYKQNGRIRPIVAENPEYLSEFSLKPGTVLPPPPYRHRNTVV
Sequence of MAP/microtubule affinity-regulating kinase 4 (Q96L34 whole entry): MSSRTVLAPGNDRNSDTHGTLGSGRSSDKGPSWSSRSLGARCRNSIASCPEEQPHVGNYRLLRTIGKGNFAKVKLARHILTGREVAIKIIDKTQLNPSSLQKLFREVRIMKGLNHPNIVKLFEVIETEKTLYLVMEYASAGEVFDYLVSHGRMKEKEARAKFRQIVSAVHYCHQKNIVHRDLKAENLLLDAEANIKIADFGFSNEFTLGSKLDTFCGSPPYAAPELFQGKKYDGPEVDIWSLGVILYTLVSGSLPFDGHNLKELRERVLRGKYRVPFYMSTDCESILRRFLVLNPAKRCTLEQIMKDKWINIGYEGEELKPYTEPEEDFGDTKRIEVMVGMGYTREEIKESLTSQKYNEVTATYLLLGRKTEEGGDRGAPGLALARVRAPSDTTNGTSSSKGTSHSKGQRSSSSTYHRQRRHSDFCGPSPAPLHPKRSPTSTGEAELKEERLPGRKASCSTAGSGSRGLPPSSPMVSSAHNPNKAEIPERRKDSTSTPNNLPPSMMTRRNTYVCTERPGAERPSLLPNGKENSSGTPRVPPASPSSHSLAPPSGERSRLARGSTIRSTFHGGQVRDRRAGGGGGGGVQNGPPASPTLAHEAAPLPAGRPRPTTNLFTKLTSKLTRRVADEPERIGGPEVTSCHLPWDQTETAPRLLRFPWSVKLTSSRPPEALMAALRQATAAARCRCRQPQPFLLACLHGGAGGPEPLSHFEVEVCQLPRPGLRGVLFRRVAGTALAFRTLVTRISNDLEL
Sequence of Casein kinase I isoform alpha (P48729 whole entry, canonical isoform): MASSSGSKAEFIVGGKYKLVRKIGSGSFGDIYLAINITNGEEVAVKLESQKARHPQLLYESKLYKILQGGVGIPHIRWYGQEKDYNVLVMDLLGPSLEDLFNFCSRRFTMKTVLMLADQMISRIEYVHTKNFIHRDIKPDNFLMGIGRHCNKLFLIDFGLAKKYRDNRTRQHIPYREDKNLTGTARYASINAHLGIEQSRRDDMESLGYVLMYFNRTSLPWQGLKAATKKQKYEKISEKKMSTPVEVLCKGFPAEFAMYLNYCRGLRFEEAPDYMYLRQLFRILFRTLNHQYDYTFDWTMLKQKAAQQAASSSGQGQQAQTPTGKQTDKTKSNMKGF

Question: For O=C(COC(=O)c1ccc([N+](=O)[O-])s1)NCCc1ccccc1, which EC50 [1] is on record?
Answer: 22100 nM (inactive)

Question: And the AC50 [2]?
Answer: 83700 nM (active)

Question: For OC1CCC(Nc2cc(Cl)nc(-c3c[nH]c4ncccc34)n2)CC1 (configuration not stated), which Ki [3] is on record?
Answer: > 1000 nM (inactive)

Question: And the Ki [4]?
Answer: 20 nM (active)

Question: What about the Ki [5] of the same compound?
Answer: > 3980 nM (inactive)

Question: What about the Ki [6] of the same compound?
Answer: > 3160 nM (inactive)

Question: And the Ki [7]?
Answer: 79.4 nM (active)

Question: And the Ki [8]?
Answer: 1000 nM (active)

Question: What about the Ki [9] of the same compound?
Answer: > 794 nM (inactive)

Question: And the Ki [10]?
Answer: 20 nM (active)

Question: What about the Ki [11] of the same compound?
Answer: 3160 nM (active)

Question: And the Ki [12]?
Answer: 398 nM (active)

Question: And the Ki [13]?
Answer: 1000 nM (active)

Question: What about the Ki [14] of the same compound?
Answer: > 7940 nM (inactive)

Question: What about the Ki [15] of the same compound?
Answer: 126 nM (active)

Question: What about the Ki [16] of the same compound?
Answer: 316 nM (active)

Question: What about the Ki [17] of the same compound?
Answer: 3160 nM (active)

Question: What about the Ki [18] of the same compound?
Answer: > 10000 nM (inactive)

Question: What about the Ki [19] of the same compound?
Answer: > 3980 nM (inactive)

Question: And the Ki [20]?
Answer: 2510 nM (active)

Question: And the Ki [21]?
Answer: 126 nM (active)

Question: What about the Ki [22] of the same compound?
Answer: 398 nM (active)

Question: What about the Ki [23] of the same compound?
Answer: 1000 nM (active)

Question: What about the Ki [24] of the same compound?
Answer: > 2510 nM (inactive)

Question: And the Ki [25]?
Answer: 7.94 nM (active)

Question: And the Ki [26]?
Answer: > 1000 nM (inactive)

Question: What about the Ki [27] of the same compound?
Answer: > 3160 nM (inactive)

Question: And the Ki [28]?
Answer: 1000 nM (active)

Question: What about the Ki [29] of the same compound?
Answer: 794 nM (active)

Question: What about the Ki [30] of the same compound?
Answer: > 5010 nM (inactive)

Question: And the Ki [31]?
Answer: > 2000 nM (inactive)

Question: What about the Ki [32] of the same compound?
Answer: 12.6 nM (active)

Question: And the Ki [33]?
Answer: 1 nM (active)

Question: And the Ki [34]?
Answer: 398 nM (active)

Question: What about the Ki [35] of the same compound?
Answer: > 1580 nM (inactive)

Question: And the Ki [36]?
Answer: > 2000 nM (inactive)

Question: What about the Ki [37] of the same compound?
Answer: > 2510 nM (inactive)

Question: What about the Ki [38] of the same compound?
Answer: 1260 nM (active)

Question: What about the Ki [39] of the same compound?
Answer: > 6310 nM (inactive)

Question: What does the source list for COCC/N=c1\scc(-c2cccs2)n1/N=C/c1ccc(O)c(O)c1O?
Answer: IC50 [40]: 38900 nM (not active); IC50 [41]: > 100000 nM (active); IC50 [42]: > 11800 nM (not active)
